A short description of data set [1]: Pharmacokinetics of Compounds 106 and 108 after intravenous and oral dosing in chimpanzees. It is filed as in vivo. Particulars: chimps; for AUC(0-inf) / clearance / half-life / Cmax: both sexes, plasma, 100 mg each co-dosed; for half-life: 30 minute infusion. The method, then:
Chimpanzees (one male and one female for each route of administration) were administered a combination of 100 mg of Compound 106, 100 mg of Compound 108 and 100 mg of pirfenidone in 10% DMI (dimethyl isosorbide), 15% ethanol, 35% PG in distilled water (total volume 150 ml) by either oral or intravenous dosing. Intravenous dosing was performed by infusion over a 30 minute period. Blood samples from the orally dosed chimps were collected just prior to dosing and at 15, 30, 60, 90, 120, 240, 360, 480, 600, 720 and 1440 minutes post-dosing. Blood samples (4.5 ml) from the intravenously dosed chimps were collected just prior to infusion, at 15 and 29.5 minutes after the start of infusion, and then at 6, 15, 30, 45, 60, 120, 240, 360, 480, 600, 720 and 1440 minutes post-infusion. Plasma was isolated and prepared for analysis by mixing 0.1 ml of plasma with 300 μL of indiplon in (50 ng/ml in acetonitrile/water; 90/10; v/v) as an internal standard, vortexing and then centrifuging to remove any precipitated protein.
Plasma samples (10 μl) were injected to a Zorbax SB-C8 (Rapid Resolution) column (2.1×30 mm, 3.5 μm). The initial mobile phase condition was 100% A (water with 0.1% formic acid) and 0% B (acetonitrile with 0.1% formic acid) with a flow rate at 0.75 mL/min. Mobile phase B was allowed to reach 100% in 0.75 minutes and held for 1.0 minute before ramping back to 0% in another 0.1 minute. The overall run time was 3 minutes. The precursor/product ion pairs were set at m/z 186/92, m/z 191/97, m/z 189/95 and m/z 377/293 for detecting pirfenidone, Compound 106, Compound 108 and indiplon, respectively. Plasma concentration data for each compound in each animal was individually fitted to a 2-compartment model using WinNonLin version 5.2 (PK Model #9) with weighting of 1/y.

Data set [2] can be described thus: Pharmacokinetics of Compound 106 after intravenous and oral dosing in rats. It is filed as in vivo, Male Sprague-Dawley rats. Particulars: for half-life / AUC(0-inf): male, Sprague-Dawley, rat, plasma; for half-life: 8 mg/kg co-dosed with pirfenidone; for AUC(0-inf): 8 mg/kg co-dosed. The method, then: Male Sprague-Dawley rats (3 for each route of administration) were administered a combination of 8 mg/kg of Compound 106 and 8 mg/kg of pirfenidone in 10% DMI (dimethyl isosorbide), 15% ethanol, 35% PG in distilled water by either oral or intravenous dosing. Blood samples from the dosed rats were collected prior to dosing and at 15, 30, 45, 60, 75, 90, 120, 240, and 360 minutes post-dosing. Plasma was isolated and prepared for analysis by mixing 0.1 ml of plasma in an Eppendorf tube with 20 μL methanol and 500 μL of quetiapine (50 ng/ml as an internal standard), vortexing for 1 minute and then centrifuging at 15,000 rpm for 5 minutes to remove any cellular debris. Plasma samples were analyzed by LC-MS/MS.
LC was performed using an Agilent (Agilent Technologies Inc. USA) liquid chromatograph equipped with an isocratic pump (1100 series), an autosampler (1100 series) and a degasser (1100 series). Plasma samples (2 μL) were run at 25° C. on a Phenomenex Gemini, C18, 5 μm, (50 mm×2.0 mm) column using 0.1% formic acid:methanol (30:70) as the mobile phase with an elution rate of 300 μL/min.
Mass spectrometric analysis was performed on plasma samples (2 μL) prepared as set forth above using an API3000 (triple-quadrupole) instrument from AB Inc (Canada) with an ESI interface. The data acquisition and control system were created using Analyst 1.4 software from ABI Inc.

Data set [3] in a line: Pharmacokinetics of Compound 108 and 109 after intravenous and oral dosing in rats. The conditions noted are these: 8 mg/kg co-dosed with 8 mg/kg pirfenidone; for % Change compared to Pirfenidone, AUC0-∞ / % Change compared to Pirfenidone, Clearance / % Change compared to Pirfenidone, Half-life: IV dosing; for % Change compared to Pirfenidone, Cmax: oral dosing. The class given is in vivo, Male Sprague-Dawley rats.

Results on four molecules are retold here after patent US20130018193A1, “DEUTERATED PIRFENIDONE” (CONCERT Pharmaceuticals Inc., priority 2007, published 2013).

With `[2H]c1cc(C([2H])([2H])[2H])c([2H])n(-c2ccccc2)c1=O` [Compound 106, 3,6-Dideutero-5-(methyl-d3)-1-phenylpyridin-2(1H)-one], in data set [1] (IV dosing (Avg)), the AUC(0-inf) amounted to 6900 ng·h/mL, the clearance was 4.37 mL/min/kg and the half-life is 1.4 h. In data set [1] (oral dosing (Avg)), the AUC(0-inf) is 1260 ng·h/mL and the Cmax came out at 340 ng/mL. Also, in data set [1] (intravenous administration), the “increase in AUC as compared to pirfenidone” value (shortened to “increase in AUC”) was about 50% and the “increase in half-life as compared to pirfenidone” value (shortened to “increase in half-life”) is reported as “greater than 10%”. Moreover, in data set [1] (oral dosing), the “increase in AUC” value is listed as “greater than 50%” and the “increase in Cmax as compared to pirfenidone” value is “greater than 50%”. In addition, in data set [2] (intravenous administration), the “increase in AUC” value is recorded as 72% and the “increase in half-life” value is recorded as 62%. Besides, in data set [2] (IV dosing), the half-life is 1.2 h and the area under the curve AUC(0-inf) was determined as 20100 ng·h/mL. Also, in data set [2] (oral dosing), the AUC(0-inf) came out at 13800 ng·h/mL and the “increase in AUC” value is 75%.

Turning to `[2H]C([2H])([2H])c1ccc(=O)n(-c2ccccc2)c1` [Compound 108, 5-(Methyl-d3)-1-phenylpyridin-2(1H)-one], in data set [1] (IV dosing (Avg)), the AUC(0-inf) stood at 7000 ng·h/mL, the clearance was 4.58 mL/min/kg and the half-life is 1.5 h. In data set [1] (oral dosing (Avg)), the AUC(0-inf) was determined as 1350 ng·h/mL and the Cmax was determined as 360 ng/mL. For the same molecule, in data set [1] (intravenous administration), the “increase in AUC” value is on record as about 50% and the “increase in half-life” value is reported as “greater than 20%”. Also, in data set [1] (oral dosing), the “increase in AUC” value is recorded as about 60% and the “increase in Cmax as compared to pirfenidone” value is reported as about 60%. Further, in data set [3], the “% Change compared to Pirfenidone, AUC0-∞” value is “+42%”; the “% Change compared to Pirfenidone, Clearance” value is listed as −29%; the “% Change compared to Pirfenidone, Half-life” value was “+37%”; the “% Change compared to Pirfenidone, Cmax” value is given as “+31%”.

Turning to `[2H]c1c([2H])c([2H])c(-n2cc(C([2H])([2H])[2H])ccc2=O)c([2H])c1[2H]` [Compound 109], in data set [3], the “% Change compared to Pirfenidone, AUC0-∞” value was “+29%”; the “% Change compared to Pirfenidone, Clearance” value is given as −23%; the “% Change compared to Pirfenidone, Half-life” value is “+41%”; the “% Change compared to Pirfenidone, Cmax” value is “+19%”.

Regarding `Cc1ccc(=O)n(-c2ccccc2)c1` [Pirfenidone, 5-methyl-1-phenylpyridin-2(1H)-one], in data set [1] (IV dosing (Avg)), the AUC(0-inf) turned out to be 4800 ng·h/mL, the clearance was 6.57 mL/min/kg and the half-life was 1.2 h. Further, in data set [1] (oral dosing (Avg)), the AUC(0-inf) amounted to 830 ng·h/mL and the Cmax worked out at 230 ng/mL. In data set [2] (IV dosing), the half-life was 0.74 h and the total exposure AUC(0-inf) came out at 11600 ng·h/mL. For the same molecule, the AUC(0-inf) in data set [2] (oral dosing) was 7910 ng·h/mL.
